Results from patent US20250354192A1, “METHODS FOR QUANTIFYING LIVE BACTERIA” (priority 2022, published 2025).

Legend:
[1] = tested on: E. coli; experiment: Cell doubling control with DL-serine hydroxamate, OD600 and EDA click labeling on PIPER; assay type: cell-based
Method: E. coli was grown overnight at 37° C. The next day, cells were diluted into fresh media and grown for 2 hours. Next, +/−DL-serine hydroxamate (SHX; 1 mg/ml) and EDA (1 mM) were added. OD600 was taken every 20 min for 90 min. Aliquots of cells at the last time point were pelleted by centrifugation (10 min 10,000 g), and supernatant was discarded. Bacteria were washed with 1 mL of 1× PBS, pelleted by centrifugation (10 min 10,000 g), and supernatant was discarded. Cell pellets were resuspended in click reaction solution containing 200 μM copper sulfate (II) (MilliporeSigma, Burlington, MA), 128 μM THPTA ligand (Lumiprobe, Hunt Valley, MD), 2.5 mM Ascorbic acid (MilliporeSigma, Burlington, MA), 25 μM CF488 picolyl azide fluorescent dye (Biotium, Fremont, CA) and incubated for 30 min at room temperature. Cells were pelleted by centrifugation (10 min 10,000 g), supernatant was discarded, and pellets were resuspended 1 mL of 1× PBS. Finally, pellets were resuspended in PBS, mixed with ferrofluid and processed in the non-capture assay on PIPER. An automated bacterial image recognition algorithm determined labeled cell counts.

[2] = tested on: Salmonella Typhimuirum; experiment: Time course of labeling with NADA-Green, PIPER cartridge coated with Salmonella-specific antibody; assay type: cell-based; conditions: 1 mM, 30 minutes or 90 minutes, 37° C. in BHI
Method: Cells were pelleted by centrifugation (10 min 10,000 g) to remove the excess dye, resuspended in 1×PBS, mixed with ferrofluid, and processed on PIPER using a cartridge having areas coated with a Salmonella-specific antibody.

[3] = tested on: gram-positive and gram-negative bacteria; experiment: Labeling of gram-positive and gram-negative bacteria with NADA-Green, PIPER non-capture assay; assay type: cell-based, five (5) different strains of log phase bacteria; conditions: 1 mM, 90 minutes
Method: FIG. 4 depicts the labeling of gram-positive and gram-negative bacteria with NADA-Green with the five (5) different strains of log phase bacteria (see FIGS. 2A-E) growing at 37° C. in BHI media, and then incubated with 1 mM NADA-Green (Bio-Techne, Minneapolis, MN) for 90 minutes. Cells were pelleted by centrifugation (10 min 10,000 g) to remove the excess dye, resuspended in 1×PBS, mixed with ferrofluid, and processed on PIPER in a non-capture assay.

[4] = tested on: Bacillus, Enterococcus, Listeria, Salmonella, and Klebsiella; experiment: NADA-Green labeling of live versus heat-killed bacteria, PIPER non-capture assay; assay type: cell-based; conditions: 1 mM, 60 minutes; live log phase or heat-killed 15 minutes at 70° C.
Method: Accordingly, as shown in FIG. 2A-E, NADA-Green labels live bacteria and illustrates five (5) different strains (Bacillus, Enterococcus, Listeria, Salmonella, and Klebsiella) of log phase bacteria growing at 37° C. in brain heart infusion (BHI) media or heat-killed for 15 minutes at 70° C. were incubated with or without the fluorescent D-amino acid, NADA-Green at 1 mM (Bio-Techne, Minneapolis, MN) for 60 minutes. Cells were pelleted to remove the excess dye and resuspended in 1X phosphate buffered saline (PBS). Each sample was then split into two tubes. To one of the tubes, SYBR Green (ThermoFisher Scientific, Waltham, Massachusetts) was added in 1:100 dilution. All samples were processed on Ancera Inc.'s PIPER™ platform (“PIPER”) in a non-capture assay and analyzed by a bacterial image recognition algorithm to determine labeled cell counts. […] SYBR labeling confirmed that the dead cells remained intact on the instrument.

[5] = tested on: eight (8) different strains of log phase bacteria; experiment: Quantification of cells labeled with NADA-Green in eight strains, PIPER image recognition algorithm; assay type: cell-based; conditions: 1 mM, 60 minutes
From the text: FIG. 5A depicts the quantification of cells labeled with NADA-Green in eight (8) different strains of log phase bacteria. FIG. 5B depicts the quantification of cell labelling efficiency by NADA-Green in eight (8) different strains of log phase bacteria (SE—Salmonella enterica; EC—Escherichia coli; KP—Klebsiella pneumoniae; CF—Citrobacter freundii; SA—Staphylococcus aureus; BC—Bacillus cereus; LM—Listeria monocytogenes; PA—Pseudomonas aeruginosa), determined as a percentage of NADA-labelled PIPER cell counts to the SYBR-labelled PIPER cell counts. Cells growing at 37° C. in BHI media were incubated with 1 mM NADA-Green (Bio-Techne, Minneapolis, MN) for 60 minutes. Cells were pelleted by centrifugation (10 min 10,000 g) to remove the excess dye, resuspended in 1×PBS, mixed with ferrofluid, and processed on PIPER in a non-capture assay. An automated bacterial image recognition algorithm determined labeled cell counts.

[6] = tested on: Salmonella Typhimurium, Staphylococcus aureus, or a mixture of the two strains; experiment: Labeling of a mixed culture with NADA-Green, PIPER non-capture assay; assay type: cell-based; conditions: 1 mM, 60 minutes, 37° C.
Method: Even with efficient uptake of the D-amino acid analog, gram-negative bacteria may not stain as brightly as gram-positive bacteria because gram-negative bacteria have a much thinner peptidoglycan layer. […] For example, FIGS. 12A-B depict labeling of a mixed culture with NADA-Green. A log phase culture of Salmonella Typhimurium, Staphylococcus aureus, or a mixture of the two strains was incubated at 37° C. with 1 mM NADA-Green Bio-Techne, Minneapolis, MN) for 60 minutes. Cells were pelleted by centrifugation (10 min 10,000 g) to remove the excess dye, resuspended in 1×PBS, mixed with ferrofluid, and processed on PIPER in a non-capture assay. […] Salmonella cells appear smaller and dimmer in the image than Staph. aureus cells.

[7] = tested on: Eight (8) different species of bacteria; experiment: Bacterial growth (OD600) of cold-stressed cultures in BHI with or without chloramphenicol; assay type: cell-based; conditions: 5 μg/mL in BHI, 37° C., 2-hour observation window
Method: Eight (8) different species of bacteria (Salmonella enterica, E. coli, Klebsiella pneumoniae, Citrobacter freundii, Staphylococcus aureus, Bacillus cereus, Listeria monocytogenes and Pseudomonas aeruginosa) were propagated from frozen stocks onto TSA plates and incubated at 37° C. for 24 hours. To induce cold-stress, a loopful of cells from each plate was transferred into 3 mL of Butterfield's Phosphate Buffer, vortexed to suspend the cells, and placed at 4° C. for 1 day. The following day, cells from each culture were pelleted for 10 minutes at 10,000 g and resuspended in BHI (FIG. 19A) or BHI containing 5 μg/mL of chloramphenicol (FIG. 19B). Each culture was normalized to an absorbance value at 600 nm (OD600) of 0.05 and loaded in triplicate onto a sterile microplate at 0.2 mL per well. The microplate was covered with BreatheEasy film and bacterial growth was monitored using a SpectroStar Nano spectrophotometer (BMG Labtech, Cary, NC) for 24 hours. During growth, the temperature was maintained at 37° C. and the plate was automatically shaken prior to OD600 readings every 10 minutes. […] OD600 observations were validated using the “gold-standard” petrifilm counts (3M) (FIG. 19C). […]

[8] = tested on: Klebsiella pneumoniae (KP); experiment: 3-step metabolic labeling with EDA with or without chloramphenicol, detection on PIPER; assay type: cell-based; conditions: 5 μg/mL, 1 mM EDA, 37° C. for 90 min
Method: (§1) Eight (8) different species of bacteria (Salmonella enterica, E. coli, Klebsiella pneumoniae, Citrobacter freundii, Staphylococcus aureus, Bacillus cereus, Listeria monocytogenes and Pseudomonas aeruginosa) were propagated from frozen stocks onto TSA plates and incubated at 37° C. for 24 hours. To induce cold-stress, a loopful of cells from each plate was transferred into 3 mL of Butterfield's Phosphate Buffer, vortexed to suspend the cells, and placed at 4° C. for 1 day. The following day, cells from each culture were pelleted for 10 minutes at 10,000 g and resuspended in BHI (FIG. 19A) or BHI containing 5 μg/mL of chloramphenicol (FIG. 19B). Each culture was normalized to an absorbance value at 600 nm (OD600) of 0.05 and loaded in triplicate onto a sterile microplate at 0.2 mL per well. The microplate was covered with BreatheEasy film and bacterial growth was monitored using a SpectroStar Nano spectrophotometer (BMG Labtech, Cary, NC) for 24 hours. During growth, the temperature was maintained at 37° C. and the plate was automatically shaken prior to OD600 readings every 10 minutes. […] A cold-stressed Klebsiella pneumoniae (KP) culture prepared as described above was transferred into BHI or BHI containing 5 μg/mL of chloramphenicol and either plated immediately or placed at 37° C. for 90 minutes. […]

[9] = tested on: Klebsiella pneumoniae (KP); experiment: APC petrifilm counts before and after 90 minutes incubation with or without chloramphenicol; assay type: cell-based; conditions: 5 μg/mL, 37° C. for 90 minutes
Method: as §1

[10] = tested on: Salmonella enterica (ATCC 12023), Klebsiella pneumoniae (ATCC 13882), Citrobacter freundii (ATCC 8090), and E. coli (ATCC 35421); conditions: ethanol 25%, N=3
Method: (§2) Experimental Detail: A single colony of each indicated bacteria was inoculated into BHI and incubated overnight at 37° C. On the next day, the cells were diluted into fresh BHI and incubated for 2 h at 37° C. followed by an additional 90-minute incubation in the presence or absence of 1 mM EDA, where indicated. Where indicated, an aliquot of each culture was mixed with 96% ethanol to a final concentration of 70% (A, B) or 25% (C) and incubated for 5 to 10 min at room temperature. Cultures not exposed to ethanol were incubated for an equal amount of time in 1×PBS. Cells were pelleted by centrifugation for 10 min at 10,000 g, and supernatant containing excess EDA and ethanol was discarded. Cells were then resuspended in 300 μL of 1×PBS and pelleted again by centrifugation (10 min at 10,000 g). The 3rd step was carried out by resuspending cell pellets in 0.25 mL of 1×PBS solution containing 200 μM copper sulfate (II) (MilliporeSigma, Burlington, MA), 128 μM THPTA ligand (Lumiprobe, Hunt Valley, MD), 2.5 mM Ascorbic acid (MilliporeSigma, Burlington, MA), 25 μM CF488 picolyl azide fluorescent dye (Biotium, Fremont, CA), and 5% DMSO (Thermo Fisher Scientific, Waltham, MA). After a 30-minute incubation at room temperature, 500 μL of 1×PBS was added to each reaction, and cells were harvested by centrifugation (10 min at 10,000 g). Supernatant containing excess dye and reaction components was discarded, cells were washed with 500 μL of 1×PBS, and the cells were pelleted again by centrifugation. Finally, each cell pellet was resuspended in 0.3 mL of 1×PBS and mixed with an equal volume of ferrofluid. All samples were run on PIPER, and cell counts were generated by image analysis using an automated bacterial image recognition algorithm.

[11] = tested on: E. coli (ATCC 35421); conditions: 5 or 10 minutes with ethanol; cells grown in the presence of EDA
Method: as §2

[12] = tested on: B. cereus (ATCC 33019); conditions: ethanol 70%, 5 to 10 min at room temperature
Method: as §2

NC(CO)C(=O)NO (racemic) [DL-Serine hydroxamate, DL-serine hydroxamate]
labeling with EDA and click reaction in the presence of the agent ([1]; 1 mg/ml SHX, 1 mM EDA): does not prevent labeling | doubling of fast-growing cells (OD600) ([1]; 1 mg/ml, OD600 every 20 min for 90 min): slows doubling of fast-growing cells

N[C@H](CNc1ccc([N+](=O)[O-])c2nonc12)C(=O)O [NADA-Green]
interference with cell growth or capture by the antibody [2]: does not interfere with cell growth or capture by the antibody | labeling of bacteria [3]: labels both gram-positive and gram-negative bacteria | labeled cell counts above background noise, live versus heat-killed cells [4]: Only live cells labeled with NADA-Green were counted above background noise | detection of labeled strains by the image recognition algorithm [5]: All labeled strains except Pseudomonas were detected | PIPER counts in mixed culture versus individual cultures [6]: counts in the mixed culture are approximately additive of the counts for each individual culture

O=C(N[C@H](CO)[C@H](O)c1ccc([N+](=O)[O-])cc1)C(Cl)Cl [chloramphenicol]
doubling (OD600) [7]: prevented doubling in all 8 strains | PIPER cell counts versus sample without chloramphenicol [8]: slight decrease in cell counts | interference with 3-step metabolic labeling and detection on PIPER [8]: did not interfere with 3-step metabolic labeling and detection on PIPER | cell doubling by APC petrifilm counts [9]: prevented cell doubling

CCO [ethanol]
cell counts, cell mean intensity and variability across technical replicates [10]: improved cell counts and/or cell mean intensity and reduced the variability across technical replicates | detection after ethanol incubation prior to the click reaction [11]: dramatically improved detection | CuAAC labeling with or without ethanol treatment [12]: occurred efficiently both with or without ethanol treatment
